In patent US12508246B2, “Uses of complex of angiotensin II receptor antagonist metabolite and NEP inhibitor in treating heart failure” (SHENZHEN SALUBRIS PHARMACEUTICALS CO. LTD, priority 2019, dated 2025):
“And” between values parts separate entries of the source, which are not always exact repeats. Identical values can stand only once. Marks after values point to notes of the source that are not given here.

Assays:
[1] = test system: dogs with heart failure (reduced ejection fraction); assay: Pharmacodynamic study in the canine chronic heart failure model-reduced ejection fraction (LAD ligation, echocardiography); assay type: in vivo; settings: HFrEF dog model; 100 mpk (mix: EXP3174 52 mpk + sacubitril 48 mpk) p.o. qd, from 3 d after modeling for 6 weeks; Mean ± SD; model 35.82, sham 66.20
Experimental: 4.1 Methods: After the animals arrived at the facility, they were on adaptive feeding, and randomized after echocardiography and ECG, and then the experiment was started. On the day of operation, animals were anesthetized by intramuscular injection of Zoletil (5 mg/kg). The trachea of the anesthetized dogs were connected to the ventilator, and then they were fixed in a supine position, their chest was opened between the third and fourth ribs, the left anterior descending coronary artery was ligated to close the thoracic cavity, and then the skin was sutured. After the animals recovered for 3 days after operation, they were given therapeutic drugs by gavage, once a day for […] consecutive weeks. During the experiment, animal's living conditions were observed every day, and their abnormal conditions were recorded. After 42 days of dosing, echocardiography was performed.
(§1) 4.2 Modeling: On the day before operation, the animals were fasted overnight. On the day of operation, the animals were intramuscularly injected with Zoletil (dose: 5 mg/kg) to induce anesthesia, and also were intramuscularly administered with atropine sulfate injection (dose: 0.5 mg/dog). After the animals were anesthetized, their hair on the left chest was shaved clean. […]

[2] = test system: dogs with heart failure (preserved ejection fraction); assay: Pharmacodynamic study in the canine chronic heart failure model-preserved ejection fraction (LAD ligation, echocardiography); assay type: in vivo; settings: HFpEF dog model; 100 mpk (mix: EXP3174 52 mpk + sacubitril 48 mpk) p.o. qd, from 3 d after modeling for 2 weeks; Mean ± SD; model 51.80, sham 68.15
Experimental: 5.1 Methods: After the animals arrived at the facility, they were on adaptive feeding, and randomized after echocardiography and ECG, and then the experiment was started. On the day of operation, animals were anesthetized by intramuscular injection of Zoletil (5 mg/kg). The tracheae of the anesthetized dogs were connected to the ventilator, and then they were fixed in a supine position; their chests were opened between the third and fourth ribs, the left anterior descending coronary artery was ligated to close the thoracic cavity, and then the skin was sutured. After the animals recovered for 3 days after operation, they were given therapeutic drugs by gavage, once a day for two consecutive weeks. During the experiment, the animals' living conditions were observed every day, and their abnormal conditions were recorded. After 14 days of dosing, echocardiography was performed.
as §1, with “5.2” for “4.2”

Question: Which results are given for “(EXP3174·AHU377)^3−·1.5 Ca^2+·2H2O [Complex of the invention]”?
Answer: endpoint left ventricular ejection fraction LVEF (%) [1]: 51.87 ± 1.01***^@$ %; endpoint left ventricular ejection fraction LVEF (%) [2]: 58.04 ± 1.29***^@ %

Question: With “Valsartan-Sacubitril sodium salt complex [LCZ696]” as the substance, how does the “endpoint left ventricular ejection fraction LVEF (%)” value [1] read?
Answer: 46.45% and 46.45 ± 3.39 %

Question: And the “endpoint left ventricular ejection fraction LVEF (%)” value [2]?
Answer: 57.98% and 57.98 ± 2.64 %
